# Experimental data from patent US20050112573A1, “Method of detecting toxic substance” (priority 2001, published 2005).
# System: yeast genes (level of expressed mRNA)
# Assay: DNA chip analysis of expressed mRNA of yeast genes after 2 h culture with a toxic chemical substance
# Format: cell-based, Saccharomyces cerevisiae S288C
# Details: for The level of expressed mRNA in the presence of chemical substance/ (ratio to absence of chemical substance): stress protein genes, DNA chip
# Experimental: Yeast (Saccharomyces cerevtisiae S288C (α SUC2mal mel gap2 CUP1)) were cultured at 25° C. on YPD medium (yeast extract 1%, polypepton 2%, glucose 2%). One of toxic chemical substances was added to the cell at logarithmic growth phase, and the cell was further cultured for two hours. Cell was cultured without any chemical substance in the same condition, and was used as control. Concentrations of the chemical substances were defined to inhibit the growth of the yeast but not lead to death.
# After the completion of cultivation, the culture was centrifuged to collect the cells. To the cells, sodium acetate buffer (50 mM sodium acetate, 10 mM EDTA, 1% SDS) was added, and the mixture was shaken at 65° C. for five minutes, followed by returning to room temperature, and obtaining the supernatant, which procedure was repeated two times. To the supernatant, ½ amount of a solution of phenol/chloroform was added, and the mixture was centrifuged to give a supernatant, which was added with an equal amount of chloroform, and the mixture was centrifuged to give a supernatant. To the supernatant, an equal amount of isopropanol containing 0.3 M sodium acetate was added, and the mixture was allowed to stand at room temperature for 30 minutes, after which the mixture was centrifuged to give a sediment of the whole RNAs. Seventy % ethanol was added to the sediment, and the mixture was again centrifuged to give a sediment, which was then dried and dissolved in water. mRNA was isolated from the whole RNAs as followings. In view of the fact that a poly A chain is attached to the 3′ terminus of mRNA, a polynucleotide having a poly T structure which was immobilized on the surface of latex beads was used to trap the mRNA, and then the mRNA was washed and eluted with spine column (Oligotex-dT30<Super>mRNA Purification Kit, Takara). Reverse transcription of the mRNA was conducted with a reverse transcriptase (Super Script II Reverse Transcriptase; catalogue No. 18064-014, GibcoBRL) using fluorescence-labeled nucleotides to give cDNAs that were introduced with Cy3-dUTP or Cy5-dUTP during the reverse transcription.
# The labeled cDNAs were dissolved in TE buffer (10 mM Tris-HCl/1 mM EDTA, pH8.0), and the solution was dropped on the DNA chip containing the whole genes of yeast (DNA Chip Research Inc. Japan) so that the cDNAs were hybridized on the DNA chip at 65° C. for over 12 hours. The fluoresces intensity of the DNA chip was read with a scanner, and the ratio relative to the fluorescence intensity resulting from the absence of chemical substance was estimated as the following, which is shown in Tables 1 to 9: [formula]
# In the Tables, “Intensity” indicated in the rightmost column is a value of the level of expressed mRNA of each gene in control cells as divided by the average level of the expressions of the whole genes.
smiles,measurement,setting,value
"C=CC=O [(14), acrolein]","The level of expressed mRNA in the presence of chemical substance/ in its absence, gene YDL078C","yeast gene YDL078C, ratio of DNA chip fluorescence intensity to that without chemical substance",0.8
same,"The level of expressed mRNA in the presence of chemical substance/ (in its absence), gene YDL215C","yeast gene YDL215C, ratio of DNA chip fluorescence intensity to that without chemical substance",1.0
same,The level of expressed mRNA in the presence of chemical substance/The level of expressed mRNA in the absence of chemical substance,yeast gene YDL238C,1.2
same,The level of expressed mRNA in the presence of chemical substance/The level of expressed mRNA in the absence of chemical substance,yeast gene YDR055W,0.9
same,"The level of expressed mRNA in the presence of chemical substance/ (in its absence), gene YDR073W","yeast gene YDR073W, ratio of DNA chip fluorescence intensity to that without chemical substance",1.2
same,"The level of expressed mRNA in the presence of chemical substance/ in its absence, gene YDR079W","yeast gene YDR079W, energy system protein genes, 2 h culture with the chemical, ratio to control without chemical",1.5
same,"The level of expressed mRNA in the presence of chemical substance/ (ratio to absence), gene YDR079W","yeast gene YDR079W, mitochondria-located protein genes, 2 h culture with chemical",1.5
same,The level of expressed mRNA in the presence of chemical substance/The level of expressed mRNA in the absence of chemical substance,yeast gene YDR084C,1.0
same,The level of expressed mRNA in the presence of chemical substance/The level of expressed mRNA in the absence of chemical substance,yeast gene YDR085C,1.6
same,The level of expressed mRNA in the presence of chemical substance/The level of expressed mRNA in the absence of chemical substance,yeast gene YDR104C,1.4
same,The level of expressed mRNA in the presence of chemical substance/The level of expressed mRNA in the absence of chemical substance,yeast gene YDR115W,1.5
same,The level of expressed mRNA in the presence of chemical substance/The level of expressed mRNA in the absence of chemical substance,yeast gene YDR259C,1.5
same,"The level of expressed mRNA in the presence of chemical substance/ (in its absence), gene YDR297W","yeast gene YDR297W, ratio of DNA chip fluorescence intensity to that without chemical substance",0.9
same,The level of expressed mRNA in the presence of chemical substance/The level of expressed mRNA in the absence of chemical substance,yeast gene YDR315C,1.4
same,The level of expressed mRNA in the presence of chemical substance/The level of expressed mRNA in the absence of chemical substance,yeast gene YDR358W,1.2
same,"The level of expressed mRNA in the presence of chemical substance/ (ratio to absence), gene YDR377W","yeast gene YDR377W, mitochondria-located protein genes, 2 h culture with chemical",1.4
same,"The level of expressed mRNA in the presence of chemical substance/ (in its absence), gene YDR387C","yeast gene YDR387C, ratio of DNA chip fluorescence intensity to that without chemical substance",0.9
same,The level of expressed mRNA in the presence of chemical substance/The level of expressed mRNA in the absence of chemical substance,yeast gene YDR388W,0.6
same,The level of expressed mRNA in the presence of chemical substance/The level of expressed mRNA in the absence of chemical substance,yeast gene YDR432W,0.5
same,The level of expressed mRNA in the presence of chemical substance/The level of expressed mRNA in the absence of chemical substance,yeast gene YDR481C,0.9
same,The level of expressed mRNA in the presence of chemical substance/The level of expressed mRNA in the absence of chemical substance,yeast gene YDR510W,1.9
same,The level of expressed mRNA in the presence of chemical substance/ (ratio to absence of chemical substance),yeast gene YEL039C,1.4
same,The level of expressed mRNA in the presence of chemical substance/The level of expressed mRNA in the absence of chemical substance,yeast gene YEL042W,0.6
same,The level of expressed mRNA in the presence of chemical substance/The level of expressed mRNA in the absence of chemical substance,yeast gene YEL066W,1.9
same,"The level of expressed mRNA in the presence of chemical substance/ (in its absence), gene YER015W","yeast gene YER015W, ratio of DNA chip fluorescence intensity to that without chemical substance",1.1
same,The level of expressed mRNA in the presence of chemical substance/The level of expressed mRNA in the absence of chemical substance,yeast gene YER039C,1.2
same,The level of expressed mRNA in the presence of chemical substance/ (ratio to absence of chemical substance),yeast gene YER057C,1.4
same,The level of expressed mRNA in the presence of chemical substance/The level of expressed mRNA in the absence of chemical substance,yeast gene YER107C,1.1
same,The level of expressed mRNA in the presence of chemical substance/The level of expressed mRNA in the absence of chemical substance,yeast gene YER130C,0.8
same,The level of expressed mRNA in the presence of chemical substance/The level of expressed mRNA in the absence of chemical substance,yeast gene YFL028C,1.6
same,The level of expressed mRNA in the presence of chemical substance/The level of expressed mRNA in the absence of chemical substance,yeast gene YFL043C,1.5
same,"The level of expressed mRNA in the presence of chemical substance/ (in its absence), gene YGL035C","yeast gene YGL035C, ratio of DNA chip fluorescence intensity to that without chemical substance",1.1
same,"The level of expressed mRNA in the presence of chemical substance/ (in its absence), gene YGL115W","yeast gene YGL115W, ratio of DNA chip fluorescence intensity to that without chemical substance",1.2
same,The level of expressed mRNA in the presence of chemical substance/ (ratio to absence of chemical substance),yeast gene YGL115W,1.2
same,The level of expressed mRNA in the presence of chemical substance/The level of expressed mRNA in the absence of chemical substance,yeast gene YGL158W,2.3
same,"The level of expressed mRNA in the presence of chemical substance/ (ratio to absence), gene YGL187C","yeast gene YGL187C, mitochondria-located protein genes, 2 h culture with chemical",0.9
same,"The level of expressed mRNA in the presence of chemical substance/ (in its absence), gene YGL205W","yeast gene YGL205W, ratio of DNA chip fluorescence intensity to that without chemical substance",1.0
same,The level of expressed mRNA in the presence of chemical substance/The level of expressed mRNA in the absence of chemical substance,yeast gene YGL229C,1.0
same,"The level of expressed mRNA in the presence of chemical substance/ in its absence, gene YGR062C","yeast gene YGR062C, energy system protein genes, 2 h culture with the chemical, ratio to control without chemical",1.2
same,"The level of expressed mRNA in the presence of chemical substance/ (ratio to absence), gene YGR062C","yeast gene YGR062C, mitochondria-located protein genes, 2 h culture with chemical",1.2
same,"The level of expressed mRNA in the presence of chemical substance/ (in its absence), gene YGR096W","yeast gene YGR096W, ratio of DNA chip fluorescence intensity to that without chemical substance",1.2
same,The level of expressed mRNA in the presence of chemical substance/The level of expressed mRNA in the absence of chemical substance,yeast gene YGR136W,1.1
same,The level of expressed mRNA in the presence of chemical substance/The level of expressed mRNA in the absence of chemical substance,yeast gene YGR189C,0.9
same,The level of expressed mRNA in the presence of chemical substance/The level of expressed mRNA in the absence of chemical substance,yeast gene YGR213C,1.0
same,The level of expressed mRNA in the presence of chemical substance/The level of expressed mRNA in the absence of chemical substance,yeast gene YGR257C,0.9
same,"The level of expressed mRNA in the presence of chemical substance/ (in its absence), gene YGR287C","yeast gene YGR287C, ratio of DNA chip fluorescence intensity to that without chemical substance",1.1
same,"The level of expressed mRNA in the presence of chemical substance/ (in its absence), gene YGR288W","yeast gene YGR288W, ratio of DNA chip fluorescence intensity to that without chemical substance",1.1
same,The level of expressed mRNA in the presence of chemical substance/ (ratio to absence of chemical substance),yeast gene YHL028W,1.3
same,The level of expressed mRNA in the presence of chemical substance/ (ratio to absence of chemical substance),yeast gene YHL046C,1.4
same,The level of expressed mRNA in the presence of chemical substance/The level of expressed mRNA in the absence of chemical substance,yeast gene YHR004C,0.8
same,The level of expressed mRNA in the presence of chemical substance/The level of expressed mRNA in the absence of chemical substance,yeast gene YHR071W,1.6
same,The level of expressed mRNA in the presence of chemical substance/The level of expressed mRNA in the absence of chemical substance,yeast gene YHR139C,2.5
same,The level of expressed mRNA in the presence of chemical substance/The level of expressed mRNA in the absence of chemical substance,yeast gene YHR142W,1.2
same,"The level of expressed mRNA in the presence of chemical substance/ (in its absence), gene YHR210C","yeast gene YHR210C, ratio of DNA chip fluorescence intensity to that without chemical substance",1.0
same,"The level of expressed mRNA in the presence of chemical substance/ (in its absence), gene YIL006W","yeast gene YIL006W, ratio of DNA chip fluorescence intensity to that without chemical substance",1.0
same,The level of expressed mRNA in the presence of chemical substance/ (ratio to absence of chemical substance),yeast gene YIL011W,0.5
same,The level of expressed mRNA in the presence of chemical substance/The level of expressed mRNA in the absence of chemical substance,yeast gene YIL123W,0.3
